According to patent publication US11759455B2, “Substituted 1H-imidazo[4,5-b]pyridin-2(3H)-ones and their use as GLUN2B receptor modulators” (JANSSEN PHARMACEUTICA NV, priority 2016, dated 2023):

Target: T1, human GluN1/GluN2B NMDA receptors (Homo sapiens, UniProt Q13224)
T1 construct: expressed in transfected cells
Experiment: Cell-based calcium flux (FLIPR) assay on cloned human NR1/NR2B ion channels expressed in mammalian cells (standard and HTS buffer variants);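 also: stable Tet-On inducible cell line, Ca2+ influx triggered by glutamate at about EC40 plus 10 µM glycine, fluorescent dye read-out over 5 min, normalized to control wells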
Settings: standard assay buffer (0.5 mM MgCl2 dye loading; 137 mM NaCl, 4 mM KCl assay buffer), human GluN1/GluN2B cells, read-out: NR2B IC50 (μM) standard assay

T1 sequence (Q13224 27-1484, other chains not shown): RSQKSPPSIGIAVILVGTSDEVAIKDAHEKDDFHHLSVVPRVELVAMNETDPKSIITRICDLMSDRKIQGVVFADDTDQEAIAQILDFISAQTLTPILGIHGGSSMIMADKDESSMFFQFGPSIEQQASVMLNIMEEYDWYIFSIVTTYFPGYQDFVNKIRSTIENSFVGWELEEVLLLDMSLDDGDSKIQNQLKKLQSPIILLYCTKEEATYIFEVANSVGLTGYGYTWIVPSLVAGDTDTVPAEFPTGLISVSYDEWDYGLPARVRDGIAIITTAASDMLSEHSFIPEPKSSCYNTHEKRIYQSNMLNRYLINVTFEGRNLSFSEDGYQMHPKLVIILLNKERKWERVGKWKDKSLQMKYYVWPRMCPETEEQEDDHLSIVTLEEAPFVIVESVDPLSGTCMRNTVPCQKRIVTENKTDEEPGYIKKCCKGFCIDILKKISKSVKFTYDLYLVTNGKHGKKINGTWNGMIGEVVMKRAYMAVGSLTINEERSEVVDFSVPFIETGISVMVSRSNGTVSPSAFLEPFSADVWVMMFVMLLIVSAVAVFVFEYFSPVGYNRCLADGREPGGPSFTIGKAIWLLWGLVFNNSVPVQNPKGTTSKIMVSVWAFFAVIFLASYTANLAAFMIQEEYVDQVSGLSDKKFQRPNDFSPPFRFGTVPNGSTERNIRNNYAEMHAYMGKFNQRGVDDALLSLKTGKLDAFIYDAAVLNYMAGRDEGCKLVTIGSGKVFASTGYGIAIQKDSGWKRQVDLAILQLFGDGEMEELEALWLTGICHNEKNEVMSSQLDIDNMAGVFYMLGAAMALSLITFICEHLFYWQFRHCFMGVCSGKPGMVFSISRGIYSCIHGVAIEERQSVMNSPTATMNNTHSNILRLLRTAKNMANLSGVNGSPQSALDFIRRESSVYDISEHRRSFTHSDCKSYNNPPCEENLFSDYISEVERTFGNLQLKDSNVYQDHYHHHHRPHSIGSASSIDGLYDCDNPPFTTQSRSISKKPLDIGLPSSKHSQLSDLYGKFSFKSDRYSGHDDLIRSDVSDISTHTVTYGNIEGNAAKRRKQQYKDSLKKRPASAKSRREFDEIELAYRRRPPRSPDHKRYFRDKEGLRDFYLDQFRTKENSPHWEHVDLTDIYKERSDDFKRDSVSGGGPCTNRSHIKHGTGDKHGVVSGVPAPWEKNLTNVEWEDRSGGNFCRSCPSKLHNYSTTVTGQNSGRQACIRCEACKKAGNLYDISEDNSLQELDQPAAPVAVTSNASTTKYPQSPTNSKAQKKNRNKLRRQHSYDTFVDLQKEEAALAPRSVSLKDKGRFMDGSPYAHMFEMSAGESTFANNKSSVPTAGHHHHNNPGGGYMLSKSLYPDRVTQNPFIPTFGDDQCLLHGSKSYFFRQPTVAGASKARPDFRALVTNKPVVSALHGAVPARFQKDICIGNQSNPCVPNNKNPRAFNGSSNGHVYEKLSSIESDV

IC50 | Structure (SMILES)
0.587 µM | CN1CCN(C(=O)Cn2c(=O)[nH]c3ncc(-c4cccc(C(F)(F)F)c4)cc32)CC1 [Example 193, 1-[2-(4-Methylpiperazin-1-yl)-2-oxo-ethyl]-6-[3-(trifluoromethyl)phenyl]-3H-imidazo[4,5-b]pyridin-2-one]
0.047 µM | O=C(Cn1c(=O)[nH]c2ncc(-c3cccc(C(F)(F)F)c3)cc21)N1CC(F)(F)C1 [Example 194, 1-[2-(3,3-Difluoroazetidin-1-yl)-2-oxo-ethyl]-6-[3-(trifluoromethyl)phenyl]-3H-imidazo[4,5-b]pyridin-2-one]
0.007 µM | O=C(Cn1c(=O)[nH]c2ncc(-c3cccc(C(F)(F)F)c3)cc21)NC1CC(F)(F)C1 [Example 195, N-(3,3-Difluorocyclobutyl)-2-[2-oxo-6-[3-(trifluoromethyl)phenyl]-3H-imidazo[4,5-b]pyridin-1-yl]acetamide]
0.182 µM | Cn1c(=O)n(CC(=O)N2CCC(F)(F)C2)c2cc(-c3cccc(C(F)(F)F)c3)cnc21 [Example 196, 1-[2-(3,3-Difluoropyrrolidin-1-yl)-2-oxo-ethyl]-3-methyl-6-[3-(trifluoromethyl)phenyl]imidazo[4,5-b]pyridin-2-one]
0.205 µM | Cn1c(=O)n(CC(=O)N2CCCC2)c2cc(-c3cccc(C(F)(F)F)c3)cnc21 [Example 197, 3-Methyl-1-(2-oxo-2-pyrrolidin-1-yl-ethyl)-6-[3-(trifluoromethyl)phenyl]imidazo[4,5-b]pyridin-2-one]
5.01 µM | Cn1c(=O)n(CC(=O)NC2(C)CC(F)(F)C2)c2cc(-c3cccc(C(F)(F)F)c3)cnc21 [Example 198, N-(3,3-Difluoro-1-methyl-cyclobutyl)-2-[3-methyl-2-oxo-6-[3-(trifluoromethyl)phenyl]imidazo[4,5-b]pyridin-1-yl]acetamide]
2.66 µM | Cn1c(=O)n(CC(=O)NC2(C)COC2)c2cc(-c3cccc(C(F)(F)F)c3)cnc21 [Example 199, N-(3-Methyloxetan-3-yl)-2-[3-methyl-2-oxo-6-[3-(trifluoromethyl)phenyl]imidazo[4,5-b]pyridin-1-yl]acetamide]
0.174 µM | Cn1c(=O)n(CC(=O)NC2CC(F)(F)C2)c2cc(-c3cccc(C(F)(F)F)c3)cnc21 [Example 200, N-(3,3-Difluorocyclobutyl)-2-[3-methyl-2-oxo-6-[3-(trifluoromethyl)phenyl]imidazo[4,5-b]pyridin-1-yl]acetamide]
0.033 µM | O=C(Cn1c(=O)[nH]c2ncc(-c3cccc(C(F)(F)F)c3)cc21)N1CCCC1 [Example 201, 1-(2-Oxo-2-pyrrolidin-1-yl-ethyl)-6-[3-(trifluoromethyl)phenyl]-3H-imidazo[4,5-b]pyridin-2-one]
0.037 µM | O=C(Cn1c(=O)[nH]c2ncc(-c3cccc(C(F)(F)F)c3)cc21)N1CCOCC1 [Example 204, 1-(2-Morpholino-2-oxo-ethyl)-6-[3-(trifluoromethyl)phenyl]-3H-imidazo[4,5-b]pyridin-2-one]
0.523 µM | O=C(Cn1c(=O)[nH]c2ncc(-c3cccc(C(F)(F)F)c3)cc21)NC1CCCC1 [Example 205, N-Cyclopentyl-2-[2-oxo-6-[3-(trifluoromethyl)phenyl]-3H-imidazo[4,5-b]pyridin-1-yl]acetamide]
0.163 µM | O=C(Cn1c(=O)[nH]c2ncc(-c3cccc(C(F)(F)F)c3)cc21)N1CCCCC1 [Example 206, 1-[2-Oxo-2-(1-piperidyl)ethyl]-6-[3-(trifluoromethyl)phenyl]-3H-imidazo[4,5-b]pyridin-2-one]
0.453 µM | O=C(Cn1c(=O)[nH]c2ncc(-c3cccc(C(F)(F)F)c3)cc21)N1CC2(CNC2)C1 [Example 207, 1-[2-(2,6-Diazaspiro[3.3]heptan-6-yl)-2-oxo-ethyl]-6-[3-(trifluoromethyl)phenyl]-3H-imidazo[4,5-b]pyridin-2-one]
> 10 µM | O=C(Cn1c(=O)[nH]c2ncc(-c3cccc(C(F)(F)F)c3)cc21)Nc1ccccn1 [Example 208, 2-[2-Oxo-6-[3-(trifluoromethyl)phenyl]-3H-imidazo[4,5-b]pyridin-1-yl]-N-(2-pyridyl)acetamide]
0.443 µM | CC1(NC(=O)Cn2c(=O)[nH]c3ncc(-c4cccc(C(F)(F)F)c4)cc32)CC(F)(F)C1 [Example 209, N-(3,3-Difluoro-1-methyl-cyclobutyl)-2-[2-oxo-6-[3-(trifluoromethyl)phenyl]-3H-imidazo[4,5-b]pyridin-1-yl]acetamide]
1.62 µM | COc1ccc(Cn2c(=O)[nH]c3ncc(-c4cccc(C(F)(F)F)c4)cc32)cn1 [Example 210, 1-[(6-Methoxy-3-pyridyl)methyl]-6-[3-(trifluoromethyl)phenyl]-3H-imidazo[4,5-b]pyridin-2-one]
0.115 µM | O=c1[nH]c2ncc(-c3cccc(C(F)(F)F)c3)cc2n1CC1CC1 [Example 211, 1-(Cyclopropylmethyl)-6-[3-(trifluoromethyl)phenyl]-3H-imidazo[4,5-b]pyridin-2-one]
0.123 µM | N#Cc1cccc(Cn2c(=O)[nH]c3ncc(-c4cccc(C(F)(F)F)c4)cc32)c1 [Example 212, 3-[[2-Oxo-6-[3-(trifluoromethyl)phenyl]-3H-imidazo[4,5-b]pyridin-1-yl]methyl]benzonitrile]
0.375 µM | N#Cc1ccccc1Cn1c(=O)[nH]c2ncc(-c3cccc(C(F)(F)F)c3)cc21 [Example 213, 2-[[2-Oxo-6-[3-(trifluoromethyl)phenyl]-3H-imidazo[4,5-b]pyridin-1-yl]methyl]benzonitrile]
> 10 µM | O=C(Cn1c(=O)[nH]c2ncc(-c3cccc(C(F)(F)F)c3)cc21)c1cccs1 [Example 214, 1-[2-Oxo-2-(2-thienyl)ethyl]-6-[3-(trifluoromethyl)phenyl]-3H-imidazo[4,5-b]pyridin-2-one]

Further lines, the molecule ahead of its results:

Structure (SMILES) | IC50
COC1CCN(CCn2c(=O)[nH]c3ncc(-c4cc(F)cc(F)c4)cc32)C1 (stereo not shown) [Example 176, 6-(3,5-Difluorophenyl)-1-[2-(3-methoxypyrrolidin-1-yl)ethyl]-3H-imidazo[4,5-b]pyridin-2-one] | 4.37 µM
Cc1cc(F)ccc1-c1cnc2[nH]c(=O)n(CCN3CCCC3)c2c1 [Example 177, 6-(4-Fluoro-2-methyl-phenyl)-1-(2-pyrrolidin-1-ylethyl)-3H-imidazo[4,5-b]pyridin-2-one] | 0.502 µM
Cc1cccc(C)c1-c1cnc2[nH]c(=O)n(CCN3CCCC3)c2c1 [Example 178, 6-(2,6-Dimethylphenyl)-1-(2-pyrrolidin-1-ylethyl)-3H-imidazo[4,5-b]pyridin-2-one] | 20.7 µM
Cc1ccccc1-c1cnc2[nH]c(=O)n(CCN3CCCC3)c2c1 [Example 179, 6-(o-Tolyl)-1-(2-pyrrolidin-1-ylethyl)-3H-imidazo[4,5-b]pyridin-2-one] | 0.707 µM
O=c1[nH]c2ncc(-c3ccccc3)cc2n1CCN1CCCC1 [Example 180, 6-Phenyl-1-(2-pyrrolidin-1-ylethyl)-3H-imidazo[4,5-b]pyridin-2-one] | 0.539 µM
Cc1c(-c2cnc3[nH]c(=O)n(CCN4CC(F)C4)c3c2)cccc1C(F)(F)F [Example 181, 1-[2-(3-Fluoroazetidin-1-yl)ethyl]-6-[2-methyl-3-(trifluoromethyl)phenyl]-3H-imidazo[4,5-b]pyridin-2-one] | 9.35 µM
Cc1cccc(-c2cnc3[nH]c(=O)n(CCN4CC(F)C4)c3c2)c1C [Example 182, 6-(2,3-Dimethylphenyl)-1-[2-(3-fluoroazetidin-1-yl)ethyl]-3H-imidazo[4,5-b]pyridin-2-one] | 1.74 µM
Cc1cc(C)cc(-c2cnc3[nH]c(=O)n(CCN4CC(F)C4)c3c2)c1 [Example 183, 6-(3,5-Dimethylphenyl)-1-[2-(3-fluoroazetidin-1-yl)ethyl]-3H-imidazo[4,5-b]pyridin-2-one] | 2.08 µM
Cc1c(F)ccc(-c2cnc3[nH]c(=O)n(CCN4CC(F)C4)c3c2)c1C [Example 184, 1-[2-(3-Fluoroazetidin-1-yl)ethyl]-6-(4-fluoro-2,3-dimethyl-phenyl)-3H-imidazo[4,5-b]pyridin-2-one] | 2.57 µM
Cc1ccc(C(F)(F)F)cc1-c1cnc2[nH]c(=O)n(CCN3CC(F)C3)c2c1 [Example 185, 1-[2-(3-Fluoroazetidin-1-yl)ethyl]-6-[2-methyl-5-(trifluoromethyl)phenyl]-3H-imidazo[4,5-b]pyridin-2-one] | 2.13 µM
Cc1ccccc1-c1cnc2[nH]c(=O)n(CCN3CC(F)C3)c2c1 [Example 186, 1-[2-(3-Fluoroazetidin-1-yl)ethyl]-6-(o-tolyl)-3H-imidazo[4,5-b]pyridin-2-one] | 1.34 µM
Cc1cc(F)ccc1-c1cnc2[nH]c(=O)n(CCN3CC(F)C3)c2c1 [Example 187, 1-[2-(3-Fluoroazetidin-1-yl)ethyl]-6-(4-fluoro-2-methyl-phenyl)-3H-imidazo[4,5-b]pyridin-2-one] | 1.19 µM
O=c1[nH]c2ncc(-c3ccccc3)cc2n1CCN1CC(F)C1 [Example 188, 1-[2-(3-Fluoroazetidin-1-yl)ethyl]-6-phenyl-3H-imidazo[4,5-b]pyridin-2-one] | 1.44 µM
CCCNCCn1c(=O)[nH]c2ncc(-c3cc(F)cc(F)c3)cc21 [Example 189, 6-(3,5-Difluorophenyl)-1-[2-(propylamino)ethyl]-3H-imidazo[4,5-b]pyridin-2-one] | 2.57 µM
O=C(Cn1c(=O)[nH]c2ncc(-c3cccc(C(F)(F)F)c3)cc21)NC1CCC1 [Example 190, N-Cyclobutyl-2-[2-oxo-6-[3-(trifluoromethyl)phenyl]-3H-imidazo[4,5-b]pyridin-1-yl]acetamide] | 0.07 µM
COC1CN(C(=O)Cn2c(=O)[nH]c3ncc(-c4cccc(C(F)(F)F)c4)cc32)C1 [Example 191, 1-[2-(3-Methoxyazetidin-1-yl)-2-oxo-ethyl]-6-[3-(trifluoromethyl)phenyl]-3H-imidazo[4,5-b]pyridin-2-one] | 0.132 µM
O=C(Cn1c(=O)[nH]c2ncc(-c3cccc(C(F)(F)F)c3)cc21)NC1COC1 [Example 192, N-(Oxetan-3-yl)-2-[2-oxo-6-[3-(trifluoromethyl)phenyl]-3H-imidazo[4,5-b]pyridin-1-yl]acetamide] | 0.052 µM
